Earlier results on four compounds are cited in PubChem BioAssay AID1259409 (Chemical Carcinogenesis Research Information System (CCRIS), 2018).

Structures are written as SMILES.

This series has as its system rodent chemically induced tumor inhibition, incidence and multiplicity. The series can be described thus: CCRIS tumor inhibitor studies.

With `C=C1CC[C@H]2[C@](C)(COC(=O)[C@@H](CC(=O)O)[C@@H](OC[C@H]3C(=C)CC[C@H]4[C@](C)(CO)CCC[C@]34C)C(=O)OC)CCC[C@]2(C)[C@H]1CO[C@@H](C(=O)OC)[C@H](CC(=O)O)C(=O)OC`, the “tumour outcome (control, treated, inhibition, significance)” value by setting is: (Carcinogen: 1,2-DIMETHYLHYDRAZINE DIHYDROCHLORIDE, 306-37-6, Dose [Inhibitor]: 0: 0.06% IN DIET FOR DURATION OF STUDY (STUDY DURATION: 25 WK), Route [Inhibitor]: ORAL, Species: MOUSE, Strain/Sex: ICR/FEMALE, Target Tissue: Type of Lesion: COLON: TUMOR, Dose [Carcinogen]: 10 MG/KG BW IN 0.9% SALINE 1/WK FOR 15 WK, Promoter: NONE USED) 10/16 (63%), 5/16 (31%), 51%, not significant; (Carcinogen: 7,12-DIMETHYLBENZ[A]ANTHRACENE, 57-97-6, Dose [Inhibitor]: 0, 1 MG 2/WK FOR 20 WK APPLIED 10 MIN PRIOR TO EACH PROMOTER DOSE (STUDY DURATION: 20 WK), Route [Inhibitor]: DERMAL, Species: MOUSE, Strain/Sex: CD-1/FEMALE, Target Tissue: Type of Lesion: SKIN: TUMOR, Dose [Carcinogen]: 100 UG ONCE, Promoter: OKADAIC ACID, 78111-17-8) 73%, 53%, 27%, not calculated; (Carcinogen: 7,12-DIMETHYLBENZ[A]ANTHRACENE, 57-97-6, Dose [Inhibitor]: 0, 5 MG 2/WK FOR 20 WK APPLIED 10 MIN PRIOR TO EACH PROMOTER DOSE (STUDY DURATION: 20 WK), Route [Inhibitor]: DERMAL, Species: MOUSE, Strain/Sex: CD-1/FEMALE, Target Tissue: Type of Lesion: SKIN: TUMOR, Dose [Carcinogen]: 100 UG ONCE, Promoter: OKADAIC ACID, 78111-17-8) 73%, 20%, 73%, not calculated; (Carcinogen: N-METHYL-N-NITROSOUREA, 684-93-5, Dose [Inhibitor]: 0, 0.2% IN DIET FOR 33 WK BEGINNING POST CARCINOGEN TREATMENT (STUDY DURATION: 35 WK), Route [Inhibitor]: ORAL, Species: RAT, Strain/Sex: F344/FEMALE, Target Tissue: Type of Lesion: COLON: TUMOR, Dose [Carcinogen]: 2 MG 3/WK FOR 2 WK, Promoter: NONE USED) 12/16 (75%), 5/16 (31%), 57%, p<0.05.
Turning to `NCCCN`, the “tumour outcome (control, treated, inhibition, significance)” value reads like this: (Carcinogen: AZOXYMETHANE, 25843-45-2, Dose [Inhibitor]: 0, 2.5 G/L IN DRINKING WATER AD LIBITUM FOR DURATION OF STUDY (STUDY DURATION: 40 WK), Route [Inhibitor]: ORAL, Species: RAT, Strain/Sex: WISTAR/MALE, Target Tissue: Type of Lesion: INTESTINE: TUMOR, Dose [Carcinogen]: 7.4 MG/KG BW IN 0.9% SALINE 1/WK FOR 10 WK, Promoter: BOMBESIN, 31362-50-2) 20/20 (100%), 11/20 (55%), 45%, p<0.01; (Carcinogen: AZOXYMETHANE, 25843-45-2, Dose [Inhibitor]: 0, 2.5 G/L IN DRINKING WATER FOR DURATION OF STUDY (STUDY DURATION: 45 WK), Route [Inhibitor]: ORAL, Species: RAT, Strain/Sex: WISTAR/MALE, Target Tissue: Type of Lesion: COLON: TUMOR, Dose [Carcinogen]: 7.4 MG/KG BW IN 0.9% SALINE 1/WK FOR 10 WK, Promoter: VASOACTIVE INTESTINAL PEPTIDE, 37221-79-7) 14/18 (78%), 6/18 (33%), 58%, p<0.02; (Carcinogen: N-BUTYL-N-(4-HYDROXYBUTYL)NITROSAMINE [3817-11-6], Dose [Inhibitor]: 2 G/L IN DRINKING WATER FOR 32 WK BEGINNING 2 D POST LAST CARCINOGEN DOSE (STUDY DURATION: 36 WK), Route [Inhibitor]: ORAL, Species: RAT, Strain/Sex: F344/MALE, Target Tissue: Type of Lesion: URINARY BLADDER: CARCINOMA, Dose [Carcinogen]: 0.05% IN DRINKING WATER FOR 4 WK (STUDY DURATION: 36 WK), Promoter: NONE) 5/17 (29%), 3/17 (18%), 39%, not significant; (Carcinogen: N-BUTYL-N-(4-HYDROXYBUTYL)NITROSAMINE [3817-11-6], Dose [Inhibitor]: 2 G/L IN DRINKING WATER FOR 32 WK BEGINNING 2 D POST LAST CARCINOGEN DOSE (STUDY DURATION: 36 WK), Route [Inhibitor]: ORAL, Species: RAT, Strain/Sex: F344/MALE, Target Tissue: Type of Lesion: URINARY BLADDER: CARCINOMA, Dose [Carcinogen]: 0.05% IN DRINKING WATER FOR 4 WK (STUDY DURATION: 36 WK), Promoter: SODIUM L-ASCORBATE [134-03-2]) 15/15 (100%), 18/18 (100%), 0%, not significant; (Carcinogen: N-BUTYL-N-(4-HYDROXYBUTYL)NITROSAMINE [3817-11-6], Dose [Inhibitor]: 2 G/L IN DRINKING WATER FOR 32 WK BEGINNING 2 D POST LAST CARCINOGEN DOSE (STUDY DURATION: 36 WK), Route [Inhibitor]: ORAL, Species: RAT, Strain/Sex: F344/MALE, Target Tissue: Type of Lesion: URINARY BLADDER: PAPILLOMA, Dose [Carcinogen]: 0.05% IN DRINKING WATER FOR 4 WK (STUDY DURATION: 36 WK), Promoter: SODIUM L-ASCORBATE [134-03-2]) 15/15 (100%), 18/18 (100%), 0%, not significant; (Carcinogen: N-METHYL-N'-NITRO-N-NITROSOGUANIDINE, 70-25-7, Dose [Inhibitor]: 0, 2.5 G/L IN DRINKING WATER BEGINNING 1 WK POST CARCINOGEN TREATMENT AND CONTINUING FOR DURATION OF STUDY (STUDY DURATI, Route [Inhibitor]: ORAL, Species: RAT, Strain/Sex: WISTAR/MALE, Target Tissue: Type of Lesion: STOMACH: ADENOCARCINOMA, Dose [Carcinogen]: 50 UG/ML IN DRINKING WATER FOR 25 WK, Promoter: BOMBESIN, 31362-50-2) 14/20 (70%), 6/20 (30%), 57%, p<0.05. For the same compound, the “tumour outcome (control, treated, inhibition, significance)” value is listed as 14/19 (74%), 6/20 (30%), 59%, p<0.02 (Carcinogen: N-METHYL-N'-NITRO-N-NITROSOGUANIDINE, 70-25-7, Dose [Inhibitor]: 0, 2.5 G/L IN DRINKING WATER FOR 26 WK BEGINNING 1 WK POST CARCINOGEN TREATMENT (STUDY DURATION: 52 WK), Route [Inhibitor]: ORAL, Species: RAT, Strain/Sex: WISTAR/MALE, Target Tissue: Type of Lesion: GLANDULAR STOMACH: ADENOCARCINOMA, Dose [Carcinogen]: 25 UG/ML IN DRINKING WATER FOR 25 WK, Promoter: SODIUM CHLORIDE, 7647-14-5) and 15/18 (83%), 8/18 (44%), 47%, p<0.05 (Carcinogen: N-METHYL-N'-NITRO-N-NITROSOGUANIDINE, 70-25-7, Dose [Inhibitor]: 0, 25 G/L IN DRINKING WATER FOR 26 WK BEGINNING 1/WK POST CARCINOGEN TREATMENT (STUDY DURATION: 52 WK), Route [Inhibitor]: ORAL, Species: RAT, Strain/Sex: WISTAR/MALE, Target Tissue: Type of Lesion: STOMACH: ADENOCARCINOMA, Dose [Carcinogen]: 25 UG/ML IN DRINKING WATER FOR 25 WK, Promoter: TYROSINE METHYL ESTER, 1080-06-4).
On to `CC(=O)C1CC2CC1CC2N=C=S` (centres undefined), for which, under “Carcinogen: 7,12-DIMETHYLBENZ[A]ANTHRACENE, 57-97-6, Dose [Inhibitor]: 0, 100 UMOL/D IN 0.5 ML EMULPHOR EL-620 FOR 5 CONSECUTIVE DAYS BEGINNING AT 47 D OF AGE (STUDY DURATION: 155 D), Route [Inhibitor]: GAVAGE, Species: RAT, Strain/Sex: SPRAGUE-DAWLEY/FEMALE, Target Tissue: Type of Lesion: MAMMARY GLAND: TUMOR, Dose [Carcinogen]: 8 MG IN 1 ML SESAME OIL ONCE AT 50 D OF AGE, Promoter: NONE USED”, the “tumour outcome (control, treated, inhibition, significance)” value was 17/25 (68%), 8/20 (40%), 41%, not significant.
Consider `CC1(C)O[C@@H]2C[C@H]3[C@@H]4CCC5=CC(=O)C=C[C@]5(C)[C@@]4(F)[C@@H](O)C[C@]3(C)[C@]2(C(=O)CO)O1`, for which, under “Carcinogen: UVB IRRADIATION, Dose [Inhibitor]: 14.4 NMOL IN 0.1 ML ACETONE 5/WK FOR 4 WK IMMEDIATELY AFTER EACH UVB EXPOSURE FOLLOWED BY 48 WK OBSERVATION PERIOD (STUD, Route [Inhibitor]: DERMAL, Species: MOUSE, Strain/Sex: SKH/HRL/FEMALE, Target Tissue: Type of Lesion: SKIN: TUMOR, Dose [Carcinogen]: 0.3 KJ/SQM ON FIRST DAY, 0.6 KJ/SQM ON SECOND DAY AND ALL SUBSEQUENT DAYS 0.9 KJ/SQM ADMINISTERED 5 D/WK FOR 4 WK, Promoter: NONE USED”, the “tumour outcome (control, treated, inhibition, significance)” value is 8/27 (30%), 4/27 (15%), 50%, not significant.
